In US11377425B1, “Small molecule modulators of IL-17” (LEO Pharma A/S, priority 2018, dated 2022):

Target: T1, human IL-17AA (Homo sapiens, UniProt Q16552)
T1 construct: host or cells: HEK (human embryonic kidney) cells
T1 sequence (Q16552 24-155): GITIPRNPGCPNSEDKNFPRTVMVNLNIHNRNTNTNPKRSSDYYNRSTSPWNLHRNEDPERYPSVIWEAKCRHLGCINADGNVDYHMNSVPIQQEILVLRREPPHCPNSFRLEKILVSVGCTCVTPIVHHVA
Test: IL-8 release assay in human epithelial keratinocytes adult (HEKa)
Assay type: cell-based
Settings: HEKa cells, 3 ng/mL HEK-human IL-17AA + 10 ng/mL human TNFalpha; read-out: Rel EC50 IL-8 release assay
Protocol: Example 138: IL-8 Release Assay in Human Epithelial Keratinocytes Adult (HEKa)
Keratinocytes were seeded at 3500 cells/well in 384-well ViewPlates (Perkin Elmer) in Epilife medium (Thermo Fisher) containing human keratinocyte growth supplement (HKGS) without hydrocortisone and incubated in a humid incubator at 37° C. 5% CO2, overnight. The following day growth medium was removed and 25 μl fresh Epilife medium added. 75 nL test compound in 100% DMSO was added into each well reserved for test compounds, by the use of acoustic pipetting. The remaining wells received an equal volume of DMSO only, as vehicle control, or terfenadine in DMSO, as a positive control for any cytotoxic compounds. Subsequently, another 25 μL Epilife medium was added to each well. Finally, wells containing test compounds and wells prepared to yield maximum stimulation received […] of 9 ng/mL recombinant, human embryonic kidney cell (HEK)-derived human IL-17AA+30 ng/mL human TNF-alpha, in Epilife medium. Wells prepared to define 100% inhibition of IL-17 effects received 25 μL of 30 ng/mL human TNF-alpha alone, in Epilife medium. Final concentrations were 3 ng/mL HEK-human IL-17AA+10 ng/mL human TNFalpha (maximum stimulation) and 10 ng/mL human TNFalpha alone (100% inhibition, Emax), respectively. Cells were incubated for 68-72 hours in the incubator. IL-8 released from the cells was measured by the use of a commercial homogenous time-resolved fluorescence (HTRF) assay (CisBio). 2 μL cell culture supernatant was transferred to a 384-well Proxiplate. 5 μL HTRF reagent was added and the plates incubated sealed in the dark for 3-22 hours at room temperature. Time-resolved fluorescence was read at 665 vs 620 nm, with excitation at 320 nm, and IL-8 levels calculated as percent of controls. Reduction of the amount of secreted IL-8 indicates decreased IL-17 signaling. Concentration response curves were fitted by the use of a four-parameter logistic equation. Relative IC50 and Emax were reported from curves showing acceptable fit (r^2>0.9). Cytotoxicity was measured in the cell-containing Viewplates following addition of 7 μL PrestoBlue (Thermo Fisher) and incubation for 2.5-3 hours at room temperature, by measuring fluorescence at 615 nm (excitation at 535 nm). Fluorescence was directly proportional to the amount of metabolic activity. Reduction of fluorescence signal indicated cytotoxicity.
Compounds of the present invention were tested in the IL-8 release assay in human epithelial keratinocytes.
Compounds having a Relative EC50 of X; wherein X<100 nM; are indicated with *
Compounds having a Relative EC50 of X; wherein 100 nM<X<1000 nM; are indicated with **
Compounds having a Relative EC50 of X; wherein 1000 nM<X; are indicated with ***

SMILES | EC50
Cc1n[nH]c(C)c1-c1ccc(NC(=O)[C@@H](NC(=O)c2ccnn2C)C2CCC(F)(F)CC2)cc1 [Example 11, N-[(1S)-1-(4,4-difluorocyclohexyl)-2-[4-(3,5-dimethyl-1H-pyrazol-4-yl)anilino]-2-oxo-ethyl]-2-methyl-pyrazole-3-carboxamide] | 100 to 1000 nM
Cc1n[nH]c(C)c1-c1ccc(NC(=O)C(NC(=O)c2ccnn2C)C(c2ccccc2)C2CCC2)cc1 (single isomer, unassigned) [Example 299, N-[1-[cyclobutyl(phenyl)methyl]-2-[4-(3,5-dimethyl-1H-pyrazol-4-yl)anilino]-2-oxo-ethyl]-2-methyl-pyrazole-3-carboxamide] | < 100 nM
Cc1nc[nH]c1-c1ccc(NC(=O)[C@@H](NC(=O)c2ccnn2C(C)C)C(C2CC2)C2CC2)cc1 [Example 379, N-[(1S)-1-(dicyclopropylmethyl)-2-[4-(4-methyl-1H-imidazol-5-yl)anilino]-2-oxo-ethyl]-2-isopropyl-pyrazole-3-carboxamide] | > 1000 nM
Cc1n[nH]c(C)c1-c1ccc(NC(=O)[C@@H](NC(=O)c2ccnn2CCCO)[C@@H]2CC(C)(C)CCC2(F)F)cc1 [Example 209, N-[(1S)-1-[(1S)-2,2-difluoro-5,5-dimethyl-cyclohexyl]-2-[4-(3,5-dimethyl-1H-pyrazol-4-yl)anilino]-2-oxo-ethyl]-2-(3-hydroxypropyl)pyrazole-3-carboxamide] | < 100 nM
Cc1[nH]nc(C2CC2)c1-c1ccc(NC(=O)[C@@H](NC(=O)c2ccnn2C(C)C)C(C2CC2)C2CC2)cc1 [Example 383, N-[(1S)-2,2-dicyclopropyl-1-[[4-(3-cyclopropyl-5-methyl-1H-pyrazol-4-yl)phenyl]carbamoyl]ethyl]-2-isopropyl-pyrazole-3-carboxamide] | < 100 nM
CCC(CC)[C@H](NC(=O)c1ccnn1C)C(=O)Nc1ccc(-c2c(C)n[nH]c2C)cc1 [Example 118] | 100 to 1000 nM
Cc1n[nH]c(C)c1-c1ccc(NC(=O)[C@@H](NC(=O)c2ccnn2C)[C@@H]2CC(C)(C)CCC2(F)F)cc1 [Example 214, N-[(1S)-1-[(1S)-2,2-difluoro-5,5-dimethyl-cyclohexyl]-2-[4-(3,5-dimethyl-1H-pyrazol-4-yl)anilino]-2-oxo-ethyl]-2-methyl-pyrazole-3-carboxamide] | < 100 nM
Cc1n[nH]c(C)c1-c1ccc(NC(=O)[C@@H](NC(=O)c2ccnn2CCO)C2CCCCC2)cc1 [Example 46, N-[(1S)-1-cyclohexyl-2-[4-(3,5-dimethyl-1H-pyrazol-4-yl)anilino]-2-oxo-ethyl]-2-(2-hydroxyethyl)pyrazole-3-carboxamide] | 100 to 1000 nM
Cc1n[nH]c(C)c1-c1ccc(NC(=O)C(NC(=O)c2ccnn2C(C)C)C2CCCCCCC2)cc1 (single isomer, unassigned) [Example 152, N-[1-cyclooctyl-2-[4-(3,5-dimethyl-1H-pyrazol-4-yl)anilino]-2-oxo-ethyl]-2-(1-methylethyl)pyrazole-3-carboxamide] | < 100 nM
Cc1n[nH]c(C)c1-c1ccc(NC(=O)C(NC(=O)c2ccnn2C(C)C)C(C)C2CC2)cc1 (centres unmarked) [Example 282] | 100 to 1000 nM
Cc1n[nH]c(C)c1-c1ccc(NC(=O)[C@@H](NC(=O)c2ccnn2C(C)CCO)C(C2CC2)C2CC2)cc1 (single isomer, unassigned) [Example 225] | < 100 nM
CCc1nocc1C(=O)N[C@H](C(=O)Nc1ccc(-c2c(C)n[nH]c2C)cc1)C(C1CC1)C1CC1 [Example 290, N-[(1S)-1-(dicyclopropylmethyl)-2-[4-(3,5-dimethyl-1H-pyrazol-4-yl)anilino]-2-oxo-ethyl]-3-ethyl-isoxazole-4-carboxamide] | < 100 nM
Cc1n[nH]c(C)c1-c1ccc(NC(=O)[C@@H](NC(=O)OC2CC2)C2CCCCCC2)cc1 [Example 427, cyclopropyl N-[(1S)-1-cycloheptyl-2-[4-(3,5-dimethyl-1H-pyrazol-4-yl)anilino]-2-oxo-ethyl]carbamate] | < 100 nM
Cn1cncc1-c1ccc(NC(=O)[C@@H](NC(=O)c2ccnn2C)[C@@H]2CCCc3ccccc32)cc1 [Example 375, 2-Methyl-N-[(1S)-2-[4-(3-methylimidazol-4-yl)anilino]-2-oxo-1-[(1R)-tetralin-1-yl]ethyl]pyrazole-3-carboxamide] | > 1000 nM
Cn1cncc1-c1ccc(NC(=O)[C@@H](NC(=O)c2ccnn2C)[C@@H]2CCc3ccc(Br)cc32)cc1 [Example 340, N-[(1S)-1-[(1R)-6-bromoindan-1-yl]-2-[4-(3-methylimidazol-4-yl)anilino]-2-oxo-ethyl]-2-methyl-pyrazole-3-carboxamide] | > 1000 nM
Cc1n[nH]c(C)c1-c1ccc(NC(=O)[C@@H](NC(=O)N(C)C(C)C)C2CCCCC2)cc1 [Example 469, (2S)-2-cyclohexyl-N-[4-(3,5-dimethyl-1H-pyrazol-4-yl)phenyl]-2-[[isopropyl(methyl)carbamoyl]amino]acetamide] | 100 to 1000 nM
Cc1n[nH]c(C(C)O)c1-c1ccc(NC(=O)[C@@H](NC(=O)c2ccnn2C)C2CCCCC2)cc1 (stereo partly drawn) [Example 440, N-[(1S)-1-Cyclohexyl-2-[4-[5-(1-hydroxyethyl)-3-methyl-1H-pyrazol-4-yl]anilino]-2-oxo-ethyl]-2-methyl-pyrazole-3-carboxamide] | 100 to 1000 nM
CCC(C1CCCCC1)C(NC(=O)c1ccnn1C)C(=O)Nc1ccc(-c2c(C)n[nH]c2C)cc1 (single isomer, unassigned) [Example 257] | < 100 nM
Cn1cncc1-c1ccc(NC(=O)[C@H](Cc2cc(C#N)ccc2Cl)NC(=O)OC(C)(C)C)cc1 [Example 307, tert-butyl N-[(1S)-1-[(2-chloro-5-cyano-phenyl)methyl]-2-[4-(3-methylimidazol-4-yl)anilino]-2-oxo-ethyl]carbamate] | > 1000 nM
Cc1n[nH]c(C)c1-c1ccc(NC(=O)[C@@H](NC(=O)c2ccnn2C(C)C)[C@H]2CCOc3ccccc32)cc1 [Example 47, N-[(1S)-1-[(4S)-chroman-4-yl]-2-[4-(3,5-dimethyl-1H-pyrazo1-4-yl)anilino]-2-oxo-ethyl]-2-isopropyl-pyrazole-3-carboxamide] | < 100 nM
Cc1n[nH]c(C)c1-c1ccc(NC(=O)[C@@H](NC(=O)c2ccnn2CCC(F)F)C(C2CC2)C2CC2)cc1 [Example 215, N-[(1S)-1-(dicyclopropylmethyl)-2-[4-(3,5-dimethyl-1H-pyrazol-4-yl)anilino]-2-oxo-ethyl]-2-(3,3-difluoropropyl)pyrazole-3-carboxamide] | < 100 nM
Cc1n[nH]c(C)c1-c1ccc(NC(=O)[C@@H](NC(=O)c2ccnn2C)C2[C@H]3CCC[C@@H]23)cc1 (stereo partly drawn) [Example 267, N-[(1S)-1-[(1S,5R)-6-bicyclo[3.1.0]hexanyl]-2-[4-(3,5-dimethyl-1H-pyrazol-4-yl)anilino]-2-oxo-ethyl]-2-methyl-pyrazole-3-carboxamide] | > 1000 nM
Cc1n[nH]c(C)c1-c1ccc(NC(=O)[C@@H](NC(=O)c2ccnn2CCC(C)O)[C@H]2CC[C@H](C)CC2)cc1 (stereo partly drawn) [Example 203, N-[(1S)-2-[4-(3,5-dimethyl-1H-pyrazol-4-yl)anilino]-1-(trans-4-methylcyclohexyl)-2-oxo-ethyl]-2-(3-hydroxybutyl)pyrazole-3-carboxamide] | < 100 nM
CCn1nccc1C(=O)N[C@H](C(=O)Nc1ccc(-c2c(C)n[nH]c2C)c(O)c1)[C@H]1CC[C@H](C)CC1 [Example 416, N-[(1S)-2-[4-(3,5-dimethyl-1H-pyrazol-4-yl)-3-hydroxy-anilino]-1-(trans-4-methylcyclohexyl)-2-oxo-ethyl]-2-ethyl-pyrazole-3-carboxamide] | < 100 nM
Cc1n[nH]c(C)c1-c1ccc(NC(=O)[C@@H](NC(=O)C(F)(F)c2ccccc2)C2CCCCC2)cc1 [Example 55, N-[(1S)-1-cyclohexyl-2-[4-(3,5-dimethyl-1H-pyrazol-4-yl)anilino]-2-oxo-ethyl]-2,2-difluoro-2-phenyl-acetamide] | 100 to 1000 nM
Cc1n[nH]c(C)c1-c1ccc(NC(=O)[C@H](CC(C)(C)C)NC(=O)c2ccnn2C)cc1 [Example 281] | 100 to 1000 nM
